What all share (type): ADME, organism-based
The nature of data set [1]: (§1) Evalaution of pharmacokinetic parameters for Glimepiride following single oral […] of Glimepiride tablets […] to healthy subjects and to patients with type 2 diabetes. The arrangement: dose 4 mg, dose 1 mg, dose 2 mg, dose 8 mg, route oral. The note with it: human, in vivo, dosed compound id 27, dosed compound name GLIMEPIRIDE, regimen Single dose, tissue Plasma.

For data set [2], the system named is Homo sapiens. Described as §1. Conditions: in vivo, po, dosed compound id 27, dosed compound name GLIMEPIRIDE, regimen Single dose, tissue Plasma. The arrangement: dose 4 mg, dose 1 mg, dose 2 mg, dose 8 mg, route oral.
A short description of data set [3]: (§2) Evalaution of pharmacokinetic parameters for Glimepiride following multiple doses of Glimepiride […] to healthy subjects and to patients with type 2 diabetes. Conditions: human, in vivo, dosed compound id 27, dosed compound name GLIMEPIRIDE, regimen Multiple dose, study dosing duration 10 days, tissue Plasma. Further details: dose 4 mg, dose 8 mg, route oral.

Data set [4] is filed under the species Homo sapiens. The description is as §2. Further details: dose 4 mg, dose 8 mg, route oral. The note with it: in vivo, po, dosed compound id 27, dosed compound name GLIMEPIRIDE, regimen Multiple dose, study dosing duration 10 days, tissue Plasma.
Data set [5] can be described thus: Pharmacokinetic parameters evaluated following intravenous […] of Glimepiride […] to normal subjects. Conditions: human, in vivo, dosed compound id 27, dosed compound name GLIMEPIRIDE, tissue Plasma.
Where [6] appears, read: dose 1-8 mg, study dosing duration 1 day.

Each structure is given as a SMILES string. Values joined by “and” are separate entries in the source; they are usually repeats but may differ in a detail not shown here. Equal entries are not always repeated.

Usually AUC stands for the area under the concentration-time curve, a measure of exposure. By half-life is commonly meant the time needed for the level to fall by half in the phase considered. What is called CL/F is clearance divided by bioavailability, as obtained after extravascular dosing. The Tmax is the time at which the peak concentration occurs. By Vd/F is commonly meant the apparent distribution volume after extravascular dosing. A word on the Cmax: it is the maximum level reached in the sampled fluid or tissue. In general, Vd refers to a proportionality between amount in the body and measured concentration, not a real space. As usually defined, the clearance is the rate of elimination divided by the concentration.

As to `CCC1=C(C)CN(C(=O)NCCc2ccc(S(=O)(=O)NC(=O)N[C@H]3CC[C@H](C)CC3)cc2)C1=O` [GLIMEPIRIDE], the area under the curve (AUC) in data set [1] (po, gender male and female, read-out: AUC(0-last)) was determined as 339 ng·h/mL. Also, the half-life in data set [1] (dose 1 mg, gender male and female, route oral) is 186 min; in data set [3] (dose 1-8 mg, route oral) it was 552 min. In addition, the CL/F turned out to be 52.1 mL/min in data set [1] (dose 1-8 mg, route oral); 48.5 mL/min with Homo sapiens [2] (setting [6]); 52.7 mL/min in data set [3] (dose 1-8 mg, route oral). For the same compound, the Tmax was 2.4 h in data set [1] (dose 1-8 mg, route oral); 2.5 h in the data set on Homo sapiens [2] (setting [6]); 2.8 h in data set [3] (dose 1-8 mg, route oral). Further, the Vd/F in data set [1] (dose 1-8 mg, route oral) was found to be 21.8 L; with Homo sapiens [2] (setting [6]), 19.8 L; in data set [3] (dose 1-8 mg, route oral) it was 37.1 L. The t1/2 with Homo sapiens [2] (dose 1 mg, gender male and female) was 5.3 h; with Homo sapiens [2] (setting [6]), 5 h. Further, the “AUC(0-last)” value in the data set on Homo sapiens [2] (gender male and female) turned out to be 315.2 ng·h/mL. In addition, the Cmax in the data set on Homo sapiens [2] (gender male and female) was 102.4 ng/mL and 103.2 ng/mL; in the data set on Homo sapiens [2] (study dosing duration 1 day), 352 ng/mL and 591 ng/mL; in data set [3] (po) it was 578 ng/mL; in the data set filed under Homo sapiens [4], 309 ng/mL. The Vd in data set [5] was determined as 8.8 L. In data set [5], the clearance stood at 47.8 mL/min.

(Values after ChEMBL document CHEMBL3832064, “DailyMed|setid=5eda246b-ac51-46e7-b473-35937f84ed05 | GLIMEPIRIDE - glimepiride tablet|Perrigo New York Inc”.)
